# Reference: US7378079B2, “Agents for imaging and diagnostic methods using them” (NST Neurosurvival Technologies Ltd., priority 2002, dated 2008)
# “Also recorded” adds a separate entry of the source.
# Tested on: B16 melanoma
# Assay: Imaging of tumor cell death in B16 melanoma in vivo, fluorescent microscopy
# Design: species or system c57/black mice
# Details: BiCNU 35 mg/Kg; compound i.v. 1-3 mg/animal after 24 h; tumors removed 2 h later
# Procedure: Mice bearing B16-melanoma were treated with chemotherapy (BiCNU 35 mg/Kg, one dose), and then injected intravenously with NST920B. Animals were sacrificed two hours later, and the tumor was removed and subjected to fluorescent histopathological assessment, to identify binding of NST920B. Shown is fluorescent microscopic image of a section of the tumor.
# Melanoma tumors were induced in c57/black mice by subcutaneous injection of B16-F10 cell line (ATCC CRL-6475). The cell line was maintained in culture in Dulbecco's modified Eagle's medium (DMEM), supplemented with 4 mM of L-glutamine; 100 units/ml of penicillin; 100 μg/ml of streptomycin; 12.5 units/ml of nystatin and 10% of fetal calf serum (FCS). For tumor induction, 10^5 cells in a volume of 100 μl were injected […] to 8 week-old male mice. 15 days later, when tumor diameter reached 5-6 mm, the mice were treated with chemotherapy (BiCNU, 1,3-bis(2-chloroethyl)-1-nitrosourea, at a single dose of 35 mg/Kg). Twenty-four hours after chemotherapy, the mice were injected intravenously with the compounds of the invention NST920B, NST930 and Re-NST904 (1-3 mg/animal). Two hours later, tumors were removed, frozen in liquid nitrogen, and subjected to cryosection. Evaluation of fluorescent signal was performed using fluorescent microscope.
smiles,measurement,value
CN(C)c1cccc2c(S(=O)(=O)N(CCOCCN(CC(=O)O)S(=O)(=O)c3cccc4c(N(C)C)cccc34)CC(=O)O)cccc12 [NST920B],"uptake by viable, non-apoptotic tumor cells, B16 melanoma",did not manifest such uptake
same,"uptake into apoptotic tumor cells, B16 melanoma",Uptake of NST920B into apoptotic cells is demonstrated; also recorded: selective uptake
